Data from patent US8148392B2, “2-indolyl imidazo [4,5-d] phenanthroline derivatives and their use in the treatment of cancer” (Lorus Therapeutics Inc., priority 2005, dated 2012).
“Also recorded” adds a separate entry of the source. Where two headings read alike, the source gives them in different places.

How the values were obtained:
MOLT-4 leukemia cells = assay: XTT cell proliferation assay, MOLT-4; assay type: cell-based, human; details: read-out: IC50 (cell growth inhibition)
Experimental: (§1) Cell growth inhibition IC50 (μM) by compounds of Formula I was tested on various cancer cell types by XTT cell proliferation assay. The growth inhibitory effects of the compounds of Formula I as shown below for the melanoma cell line SK-MEL-2 were reproducible by Lorus Therapeutics Inc.

H-460 lung cancer cells = assay: XTT cell proliferation assay, H-460; assay type: cell-based, human
Experimental: as §1

KLF4 = KLF4 gene expression by RT-PCR, MDA-MB-231; assay type: cell-based, human; details: MDA-MB-231, relative to vehicle control as 1
Text: Gene expression levels of KLF4, induced by compounds of Formula I, were also examined on various cancer cell types by RT-PCR. Fold changes in KLF4 in compound-treated cells were expressed relative to KLF4 expression in vehicle control-treated cells of respective cell type as “1”. […] Additionally, xenografts of MDA-MB-435 implanted into mammary fat pads of female SCID mice have shown immunohistochemical staining consistent with melanocytic origin (Ellison G, Klinowska T, Westwood R F, Docter E, French T, Fox J C. (2002) Mol Pathol. 55(5): 294-299). The breast cancer cell line MDA-MB-435 may be expected to function differently than the other breast cancer cell lines.

[1] = tested on: PC-3 prostate cancer cells; assay: XTT cell proliferation assay, PC-3; assay type: cell-based, human; details: read-out: IC50 (cell growth inhibition)
Experimental: as §1

[2] = PAR metal binding assay, iron; assay type: physicochemical; details: 200 μM compound
Experimental: Results are shown in FIGS. 28A (ZnCl2), 28B (CuCl2) and 28C (FeCl2). In vitro 4-(2-pyridylazo) resorcinol (PAR) zinc binding assay was performed as follows. In triplicate wells of 96-well plate (Sarstedt, Newton, N.C.), 10 μL volume of indicated final concentrations of ZnCl2 in 0.2M Tris-HCl, pH 7.5 was incubated with 10 μL of 80% acetonitrile-20% DMSO vehicle control or indicated final concentrations of the compounds of Formula I, dissolved in 80% acetonitrile-20% DMSO, for 15 min at room temperature. Then, 80 μL of PAR at final concentration of 200 μM in 0.2M Tris-HCl, pH 7.5 was added and the color development of PAR-Zn^2+ complex was measured by a multi-well spectrophotometer (Bio-Tek Instruments Inc.) at 500 nm.
Metal chelation property of compound 64 and the relative affinity on different metal ions were evaluated and compared with the effect of compound 3 in vitro using 4-(2-pyridylazo) resorcinol (PAR) colorimetric zinc assay utilizing methodology as described above in the preceding Examples. Indicated final concentrations of ZnCl2 (FIG. 56A), CuCl2 (FIG. 56B) or FeCl2 (FIG. 56C) were incubated with 80% acetonitrile-20% DMSO vehicle control or 200 μM of the compounds of Formula I. The color development of PAR-metal ion complex was measured by a multi-well spectrophotometer at 500 nm.

Cyclin D1 = Cyclin D1 gene expression in HT-29 cells, RT-PCR; assay type: cell-based, human; details: for Cyclin D1 expression change with zinc supplement: HT-29, 1 μM compound plus ZnCl2; for Cyclin D1 gene expression, change: HT-29, 1 μM, in words
Experimental: Gene and protein expression of Cyclin D1 after treatment with compound 3 was determined by RT-PCR and Western blotting as shown in FIGS. 43A and 43B, respectively, as follows. HT-29 cells were treated with 1 μM compound 3 for indicated time. Total RNA was extracted and gene expression level was determined by RT-PCR. Cyclin D1 protein expression in HT-29 cell lysate was determined by SDS-PAGE followed by Western blotting.
To identify the cell cycle regulatory pathway involved in compound 3-mediated cell cycle arrest as shown in Example 23 and 41, particularly associated with G1/S phase, expression of the key cell cycle regulator of G1/S phase progression, Cyclin D1, was examined.
The ability of compounds of Formula I to modulate gene expression of MT1A (FIG. 55A), MTF-1 (FIG. 55B), Cyclin D1 (FIG. 55C) and KLF4 (FIG. 55D) was determined by RT-PCR. HT-29 cells were treated with 1 μM compound 3 or compound 7, 35 μM ZnCl2, compound 3 and ZnCl2 together, or compound 7 and ZnCl2 together for 8 to 16 hr. The respective gene expression was normalized with β-actin gene expression in the same sample. Fold change in gene expression was expressed relative to the respective gene level of DMSO control.
The effect of compound 3 and compound 64 on gene expression changes in MT1A (FIG. 57A), MTF-1 (FIG. 57B), Cyclin D1 (FIG. 57C) and KLF4 (FIG. 57D) in HT-29 cells was determined by RT-PCR. HT-29 cells were treated with 1 μM compound 3 or compound 64, 35 μM ZnCl2, compound 3 and ZnCl2 together, or compound 64 and ZnCl2 together for 8 to 16 hr. The respective gene expression was normalized with β-actin gene expression in the same sample. Fold change in gene expression was expressed relative to the respective gene level of DMSO control.

[3] = Homo sapiens, NCI-H460, read-out: IC50 (cell growth inhibition)

| IC50 (MOLT-4 leukemia cells) [µM] | IC50 (H-460 lung cancer cells; read-out: IC50 (cell growth inhibition)) [µM] | IC50 [1] [µM] | SMILES | IC50 (MOLT-4 leukemia cells; Homo sapiens) [µM] | IC50 (H-460 lung cancer cells; [3]) [µM] | KLF4 (gene fold increase) (KLF4) [fold] | IC50 ([1]; Homo sapiens) [µM] | color development of PAR-Fe2+ [2] | Cyclin D1 expression change with zinc supplement (Cyclin D1) | Cyclin D1 gene expression, change (Cyclin D1) |
| --- | --- | --- | --- | --- | --- | --- | --- | --- | --- | --- |
| – | – | – | Cc1[nH]c2ccccc2c1-c1nc2c3cccnc3c3ncccc3c2[nH]1 [Compound 3] | 0.15 | 2.9 | 1.52 | 0.3 | minimally affected | reversed in the presence of 25 μM ZnCl2; also recorded: reversed by addition of zinc supplement | Time-dependent decreases; also recorded: decrease in both gene (FIG. 43A) and protein (FIG. 43B) levels of Cyclin D1; also recorded: significantly decreased; also recorded: decreased expressions of MT1A, MTF-1 and Cyclin D1 |
| – | – | – | Cc1[nH]c2ccc(F)cc2c1-c1nc2c3cccnc3c3ncccc3c2[nH]1 [Compound 7] | 0.07 | 2.6 | 1.6 | 0.21 | – | reversed by addition of zinc supplement | decreased expressions of MT1A, MTF-1 and Cyclin D1 |
| 0.175 | 0.3 | 0.46 | CCc1cccc2c(-c3nc4c5cccnc5c5ncccc5c4[nH]3)c(C(C)(C)C)[nH]c12 [Compound 64] | – | – | 2.06 | – | minimally affected | reversed by addition of zinc supplement | decreased expressions of MT1A, MTF-1 and Cyclin D1 |
